Laboratory results taken from patent publication US20110213193A1, “Magnetic Nanodelivery of Therapeutic Agents Across the Blood Brain Barrier” (THE FLORIDA INTERNATIONAL UNIVERSITY BOARD OF TRUSTEES, priority 2008, published 2011).

System: HIV-1 infected PBMCs
Experiment: p24 antigen production by HIV-1 infected PBMCs
Assay type: cell-based
Details: identical culture conditions, various doses
Method: The efficacy of magnetic nanoparticle-AZTTP was evaluated in an in vitro model system using HIV infected peripheral blood mononuclear cells (PBMCs). […] Therefore, binding of AZTTP to magnetic nanoparticles have no effect on its biological activity.

## Cc1cn([C@H]2C[C@H](N=[N+]=[N-])[C@@H](COP(=O)(O)OP(=O)(O)OP(=O)(O)O)O2)c(=O)[nH]c1=O [free AZTTP, 3′-Azido-3′-Deoxythymidine-5′-triphosphate]
  anti-HIV activity of free AZTTP (positive control) and MP-AZTTP compared: similar
